This note sets out measurements from patent publication US20260022142A1, “MACROCYCLIC IMMUNOMODULATORS” (Bristol-Myers Squibb Company, priority 2022, published 2026).

One may read the IC50 as the concentration that gives 50% inhibition.

Bridge positions count the residues as written; N and C are the ends. Square brackets hold non-standard residues; d marks the D form. Peptide text beside a SMILES is read from it. * marks the point of attachment. ξ: configuration not given here. Phe(3-CF3) = N[C@@H](Cc1cccc(C(F)(F)F)c1)C(=O)O; Phe(4-COOH) = N[C@@H](Cc1ccc(C(=O)O)cc1)C(=O)O; Bip = N[C@@H](Cc1ccc(-c2ccccc2)cc1)C(=O)O; Phe(3-Me) = Cc1cccc(C[C@H](N)C(=O)O)c1; Phe(4-F) = N[C@@H](Cc1ccc(F)cc1)C(=O)O; NH(CH2)12COOH = O=C(O)CCCCCCCCCCCCN*; His(π-Me) = Cn1cncc1C[C@H](N)C(=O)O; Val(3-OH) = CC(C)(O)[C@H](N)C(=O)O; hArg = N=C(N)NCCCC[C@H](N)C(=O)O; Cha = N[C@@H](CC1CCCCC1)C(=O)O; Cit = NC(=O)NCCC[C@H](N)C(=O)O; Thr(3ξ) = CC(O)[C@H](N)C(=O)O; PEG4 = NCCOCCOCCOCCOCCC(=O)O; 12Ado = NCCCCCCCCCCCC(=O)O; Carboxymethyl = O=C(O)C*; Nle = CCCC[C@H](N)C(=O)O; Orn = NCCC[C@H](N)C(=O)O; Aun = NCCCCCCCCCCC(=O)O; Dab = NCC[C@H](N)C(=O)O; Dap = NC[C@H](N)C(=O)O; AEEA = NCCOCCOCC(=O)O

The target in the experiment is T1, PD-1/PD-L1 interaction (PE-labeled human PD-L1-Ig binding to Jurkat cell line over-expressing human PD-1) (Homo sapiens, UniProt Q15116).
T1 construct: expressed in transfected cells; host or cells: Jurkat
T1 sequence (Q15116 25-288): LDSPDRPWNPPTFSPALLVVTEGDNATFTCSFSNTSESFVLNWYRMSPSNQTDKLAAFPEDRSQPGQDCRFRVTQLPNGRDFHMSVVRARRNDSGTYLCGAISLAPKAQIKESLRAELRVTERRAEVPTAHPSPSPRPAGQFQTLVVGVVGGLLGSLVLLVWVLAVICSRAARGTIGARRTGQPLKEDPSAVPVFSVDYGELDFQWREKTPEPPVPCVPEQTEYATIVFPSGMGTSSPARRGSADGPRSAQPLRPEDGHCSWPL
Nature of the experiment: Jurkat-PD-1 Cell Binding High-Content Screening Assay (CBA). Format: cell-based. As to conditions: Jurkat cell line over-expressing human PD-1; PE-labeled PD-L1-Ig 20 nM final; read-out: Jurkat hPD1-PDL1 IC50. The method in brief: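 Jurkat cells over-expressing human PD-1 (8×10^3 per well, DMEM/10% FCS) preincubated with compound 2 h at 37° C, then PE-labeled human PD-L1-Ig (20 nM final) added for 1 h. Cells fixed with paraformaldehyde, Hoechst-stained, and bound fluorescence quantified by high-content imaging.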
`CCCC[C@@H]1NC(=O)CSC[C@@H](C(=O)N[C@@H](CCN)C(=O)NCCOCCOCC(=O)NCCOCCOCC(=O)NCCCCCCCCCCCCC(=O)O)NC(=O)[C@H](CCC(=O)O)NC(=O)[C@H](C(C)(C)O)NC(=O)[C@H](CC2CCCCC2)NC(=O)[C@H](CCN)NC(=O)[C@@H](CC(C)C)NC(=O)[C@H](CCCN)NC(=O)[C@H](Cc2ccc(C(=O)O)cc2)NC(=O)[C@H](Cc2ccc(-c3ccccc3)cc2)NC(=O)[C@H](Cc2ccc(C(=O)O)cc2)NC(=O)[C@H](Cc2cccc(C)c2)NC(=O)[C@H](CC(=O)O)NC(=O)[C@H](Cc2ccc(OCC(=O)O)cc2)NC1=O` [Compound 2892] ({CH2CO}-[Nle]Y(Carboxymethyl)D[Phe(3-Me)][Phe(4-COOH)][Bip][Phe(4-COOH)][Orn][dL][Dab][Cha][Val(3-OH)]EC[Dab][AEEA][AEEA]-{NH(CH2)12COOH}; thioether N-14): the IC50 was 26.2 nM.

With `Cc1cccc(C[C@@H]2NC(=O)[C@H](CC(=O)O)NC(=O)[C@H](Cc3ccc(OCC(=O)O)cc3)NC(=O)[C@H](CN)NC(=O)CSC[C@@H](C(=O)N[C@@H](C)C(=O)N[C@@H](CCC(=O)O)C(=O)NCCOCCOCC(=O)NCCCCCCCCCCC(=O)O)NC(=O)[C@H]([C@@H](C)O)NC(=O)[C@H](C(C)C)NC(=O)[C@H](CC3CCCCC3)NC(=O)[C@H](CCN)NC(=O)[C@@H](CC(C)C)NC(=O)[C@H](CCCN)NC(=O)[C@H](CCCNC(N)=O)NC(=O)[C@H](Cc3ccc(-c4ccccc4)cc3)NC(=O)[C@H](C(C)C)NC2=O)c1` [Compound 1004] ({CH2CO}-[Dap]Y(Carboxymethyl)D[Phe(3-Me)]V[Bip][Cit][Orn][dL][Dab][Cha]VTCAE[AEEA][Aun]-OH; thioether N-14), the IC50 came out at 2.6 nM.

Take `CC(C)C[C@H]1NC(=O)[C@H](CCCN)NC(=O)[C@H](C(C)C)NC(=O)[C@H](Cc2ccc(-c3ccccc3)cc2)NC(=O)[C@H](C(C)C)NC(=O)[C@H](Cc2c[nH]c3ccccc23)NC(=O)[C@H](CC(=O)O)NC(=O)[C@H](Cc2ccc(OCC(=O)O)cc2)NC(=O)[C@H](C(C)O)NC(=O)CSC[C@@H](C(=O)N[C@@H](CCN)C(=O)NCCCCCCCCCCC(=O)O)NC(=O)[C@H](Cc2cnc[nH]2)NC(=O)[C@H](C(C)O)NC(=O)[C@H](CC2CCCCC2)NC(=O)[C@H](CCN)NC1=O` (stereo partly drawn) [Compound 3665] ({CH2CO}-[Thr(3ξ)]Y(Carboxymethyl)DWV[Bip]V[Orn][dL][Dab][Cha][Thr(3ξ)]HC[Dab][Aun]-OH; thioether N-14): the IC50 came out at 23.2 nM.

With `Cc1cccc(C[C@@H]2NC(=O)[C@H](CC(=O)O)NC(=O)[C@H](Cc3ccc(OCC(=O)O)cc3)NC(=O)[C@H](CCN)NC(=O)CSC[C@@H](C(=O)N[C@@H](CCN)C(=O)NCCOCCOCC(=O)NCCOCCOCC(=O)NCCCCCCCCCCCCC(=O)O)NC(=O)[C@H](Cc3cnc[nH]3)NC(=O)[C@H](C(C)(C)O)NC(=O)[C@H](CC3CCCCC3)NC(=O)[C@H](CCN)NC(=O)[C@@H](CC(C)C)NC(=O)[C@H](CCCN)NC(=O)[C@H](Cc3ccc(OCC(=O)O)cc3)NC(=O)[C@H](Cc3ccc(-c4ccccc4)cc3)NC(=O)[C@H](Cc3ccc(OCC(=O)O)cc3)NC2=O)c1` [Compound 3760] ({CH2CO}-[Dab]Y(Carboxymethyl)D[Phe(3-Me)]Y(Carboxymethyl)[Bip]Y(Carboxymethyl)[Orn][dL][Dab][Cha][Val(3-OH)]HC[Dab][AEEA][AEEA]-{NH(CH2)12COOH}; thioether N-14), the IC50 is 4.7 nM.

As to `Cc1cccc(C[C@@H]2NC(=O)[C@H](CC(=O)O)NC(=O)[C@H](Cc3ccc(OCC(=O)O)cc3)NC(=O)[C@H](Cc3cncn3C)NC(=O)CSC[C@@H](C(=O)N[C@@H](CCN)C(=O)NCCCCCCCCCCC(=O)O)NC(=O)[C@H](CCCCN)NC(=O)[C@H](C(C)C)NC(=O)[C@H](CC3CCCCC3)NC(=O)[C@H](CCN)NC(=O)[C@@H](CC(C)C)NC(=O)[C@H](CCCN)NC(=O)[C@H](C(C)C)NC(=O)[C@H](Cc3ccc(-c4ccccc4)cc3)NC(=O)[C@H](C(C)C)NC2=O)c1` [Compound 2035] ({CH2CO}-[His(π-Me)]Y(Carboxymethyl)D[Phe(3-Me)]V[Bip]V[Orn][dL][Dab][Cha]VKC[Dab][Aun]-OH; thioether N-14), the IC50 is 14.5 nM.

For the compound `Cc1cccc(C[C@@H]2NC(=O)[C@H](CC(=O)O)NC(=O)[C@H](Cc3ccc(OCC(=O)O)cc3)NC(=O)[C@H](CN)NC(=O)CSC[C@@H](C(=O)N[C@@H](CC(=O)O)C(=O)NCCCCCCCCCCC(=O)O)NC(=O)[C@H]([C@@H](C)O)NC(=O)[C@H](C(C)C)NC(=O)[C@H](CC3CCCCC3)NC(=O)[C@H](CCN)NC(=O)[C@@H](CC(C)C)NC(=O)[C@H](CCCN)NC(=O)[C@H](CCC(=O)O)NC(=O)[C@H](Cc3ccc(-c4ccccc4)cc3)NC(=O)[C@H](C(C)C)NC2=O)c1` [Compound 1048] ({CH2CO}-[Dap]Y(Carboxymethyl)D[Phe(3-Me)]V[Bip]E[Orn][dL][Dab][Cha]VTCD[Aun]-OH; thioether N-14), the IC50 came out at 18.3 nM.

`Cc1cccc(C[C@@H]2NC(=O)[C@H](CC(=O)O)NC(=O)[C@H](Cc3ccc(OCC(=O)O)cc3)NC(=O)[C@H](C(C)O)NC(=O)CSC[C@@H](C(=O)N[C@@H](CC(N)=O)C(=O)NCCCCCCCCCCC(=O)O)NC(=O)[C@H](C(C)O)NC(=O)[C@H](C(C)C)NC(=O)[C@H](CC3CCCCC3)NC(=O)[C@H](CCN)NC(=O)[C@@H](CC(C)C)NC(=O)[C@H](CCCN)NC(=O)[C@H](Cc3ccc(O)cc3)NC(=O)[C@H](Cc3ccc(-c4ccccc4)cc3)NC(=O)[C@H](C(C)C)NC2=O)c1` (stereo partly drawn) [Compound 3427] ({CH2CO}-[Thr(3ξ)]Y(Carboxymethyl)D[Phe(3-Me)]V[Bip]Y[Orn][dL][Dab][Cha]V[Thr(3ξ)]CN[Aun]-OH; thioether N-14): the IC50 turned out to be 16.8 nM.

For `CC(C)C[C@H]1NC(=O)[C@H](CCCN)NC(=O)[C@H](C(C)C)NC(=O)[C@H](Cc2ccc(-c3ccccc3)cc2)NC(=O)[C@H](C(C)C)NC(=O)[C@H](Cc2c[nH]c3ccccc23)NC(=O)[C@H](CC(=O)O)NC(=O)[C@H](Cc2ccc(OCC(=O)O)cc2)NC(=O)[C@H](C(C)O)NC(=O)CSC[C@@H](C(=O)N[C@@H](CCN)C(=O)NCCCCCCCCCCC(=O)O)NC(=O)[C@H](CCCCN)NC(=O)[C@H](C(C)O)NC(=O)[C@H](CC2CCCCC2)NC(=O)[C@H](CCN)NC1=O` (stereo partly drawn) [Compound 3673] ({CH2CO}-[Thr(3ξ)]Y(Carboxymethyl)DWV[Bip]V[Orn][dL][Dab][Cha][Thr(3ξ)]KC[Dab][Aun]-OH; thioether N-14), the IC50 worked out at 29.2 nM.

`CC(C)C[C@H]1NC(=O)[C@H](CCCN)NC(=O)[C@H](C(C)C)NC(=O)[C@H](Cc2ccc(-c3ccccc3)cc2)NC(=O)[C@H](C(C)C)NC(=O)[C@H](Cc2c[nH]c3ccccc23)NC(=O)[C@H](CC(=O)O)NC(=O)[C@H](Cc2ccc(OCC(=O)O)cc2)NC(=O)[C@H](CCCCNC(=N)N)NC(=O)CSC[C@@H](C(=O)NCCOCCOCC(=O)N[C@@H](CCCN)C(=O)NCCCCCCCCCCCC(=O)O)NC(=O)[C@H](CO)NC(=O)[C@H](C(C)C)NC(=O)[C@H](CC2CCCCC2)NC(=O)[C@H](CCN)NC1=O` [Compound 3153] ({CH2CO}-[hArg]Y(Carboxymethyl)DWV[Bip]V[Orn][dL][Dab][Cha]VSC[AEEA][Orn][12Ado]-OH; thioether N-14): the IC50 was 12 nM.

`CCCC[C@@H]1NC(=O)CSC[C@@H](C(=O)N[C@@H](CCN)C(=O)NCCCCCCCCCCC(=O)O)NC(=O)[C@H](CCC(=O)O)NC(=O)[C@H](C(C)(C)O)NC(=O)[C@H](CC2CCCCC2)NC(=O)[C@H](CCN)NC(=O)[C@@H](CC(C)C)NC(=O)[C@H](CCCN)NC(=O)[C@H](Cc2ccc(OCC(=O)O)cc2)NC(=O)[C@H](Cc2ccc(-c3ccccc3)cc2)NC(=O)[C@H](Cc2ccc(OCC(=O)O)cc2)NC(=O)[C@H](Cc2cccc(C)c2)NC(=O)[C@H](CC(=O)O)NC(=O)[C@H](Cc2ccc(OCC(=O)O)cc2)NC1=O` [Compound 3796] ({CH2CO}-[Nle]Y(Carboxymethyl)D[Phe(3-Me)]Y(Carboxymethyl)[Bip]Y(Carboxymethyl)[Orn][dL][Dab][Cha][Val(3-OH)]EC[Dab][Aun]-OH; thioether N-14): the IC50 was found to be 1.9 nM.

For the compound `COC[C@@H]1NC(=O)CSC[C@@H](C(=O)N[C@@H](CCN)C(=O)NCCOCCOCCOCCOCCC(=O)NCCCCCCCCCCCCC(=O)O)NC(=O)[C@H](CO)NC(=O)[C@H](C(C)(C)O)NC(=O)[C@H](CC2CCCCC2)NC(=O)[C@H](CCN)NC(=O)[C@@H](CC(C)C)NC(=O)[C@H](CCCN)NC(=O)[C@H](Cc2ccc(C(=O)O)cc2)NC(=O)[C@H](Cc2ccc(-c3ccccc3)cc2)NC(=O)[C@H](Cc2ccc(C(=O)O)cc2)NC(=O)[C@H](Cc2cccc(C(F)(F)F)c2)NC(=O)[C@H](CC(=O)O)NC(=O)[C@H](Cc2ccc(OCC(=O)O)cc2)NC1=O` [Compound 2905] ({CH2CO}-S(Me)Y(Carboxymethyl)D[Phe(3-CF3)][Phe(4-COOH)][Bip][Phe(4-COOH)][Orn][dL][Dab][Cha][Val(3-OH)]SC[Dab][PEG4]-{NH(CH2)12COOH}; thioether N-14), the IC50 is 70.6 nM.

As to `CC(C)C[C@H]1NC(=O)[C@H](CCCN)NC(=O)[C@H](Cc2ccc(O)cc2)NC(=O)[C@H](Cc2ccc(-c3ccccc3)cc2)NC(=O)[C@H](C(C)C)NC(=O)[C@H](Cc2ccc(F)cc2)NC(=O)[C@H](CC(=O)O)NC(=O)[C@H](Cc2ccc(OCC(=O)O)cc2)NC(=O)[C@H](CN)NC(=O)CSC[C@@H](C(=O)N[C@@H](CCN)C(=O)NCCOCCOCC(=O)NCCCCCCCCCCC(=O)O)NC(=O)[C@H](CCCN)NC(=O)[C@H](C(C)C)NC(=O)[C@H](CC2CCCCC2)NC(=O)[C@H](CCN)NC1=O` [Compound 1294] ({CH2CO}-[Dap]Y(Carboxymethyl)D[Phe(4-F)]V[Bip]Y[Orn][dL][Dab][Cha]V[Orn]C[Dab][AEEA][Aun]-OH; thioether N-14), the IC50 is 19.6 nM.
